# System: seed potatoes (variety: danshaku)
# Assay: Desiccation and defoliation effect on potted potato plants in greenhouse (Test Example 1)
# Type: in vivo
# Settings: potato foliage; for desiccation and defoliation effect, 4 DAT: 4 days after treatment; for desiccation and defoliation effect, 7 DAT: 7 days after treatment; for desiccation and defoliation effect, 10 DAT: 10 days after treatment; for desiccation and defoliation effect, 16 DAT: 16 days after treatment
# Experimental: In 5100-ml plastic pots filled up with soil (clay loam), seed potatoes (variety: danshaku) were planted and cultivated in a greenhouse. When the foliage was fully developed, specifically, at 30 days after flowering, the test plants were treated with the predetermined effective dosage (expressed as the amounts of active ingredients in g/ha) of the composition of the present invention in a liquid form, and further cultivated in the greenhouse. In the period from 4 days to 16 days after the treatment, the desiccation effect was surveyed and the herbicidal effect was evaluated according to the criterion described below.
# Regarding the criterion for evaluating the desiccation and defoliation effect, the extent of desiccation and defoliation was graded from 0% (no effect) to 100% (completely desiccated).
compound,measurement,setting,value
CCOC(=O)COc1cc(-c2nn(C)c(OC(F)F)c2Cl)c(F)cc1Cl [Pyraflufen-ethyl],"desiccation and defoliation effect, 4 DAT",dosage 10 g.a.i./ha,38%
same,"desiccation and defoliation effect, 7 DAT",dosage 10 g.a.i./ha,42%
same,"desiccation and defoliation effect, 10 DAT",dosage 10 g.a.i./ha,45%
same,"desiccation and defoliation effect, 16 DAT",dosage 10 g.a.i./ha,58%
same,"desiccation and defoliation effect, 4 DAT",dosage 20 g.a.i./ha,48%
same,"desiccation and defoliation effect, 7 DAT",dosage 20 g.a.i./ha,50%
same,"desiccation and defoliation effect, 10 DAT",dosage 20 g.a.i./ha,55%
same,"desiccation and defoliation effect, 16 DAT",dosage 20 g.a.i./ha,68%
Cc1nn(-c2cc(CC(Cl)C(=O)O)c(Cl)cc2F)c(=O)n1C(F)F (stereo not shown) [Carfentrazone],"desiccation and defoliation effect, 4 DAT",dosage 32 g.a.i./ha,18%
same,"desiccation and defoliation effect, 7 DAT",dosage 32 g.a.i./ha,22%
same,"desiccation and defoliation effect, 10 DAT",dosage 32 g.a.i./ha,33%
same,"desiccation and defoliation effect, 16 DAT",dosage 32 g.a.i./ha,40%
same,"desiccation and defoliation effect, 4 DAT",dosage 64 g.a.i./ha,45%
same,"desiccation and defoliation effect, 7 DAT",dosage 64 g.a.i./ha,52%
same,"desiccation and defoliation effect, 10 DAT",dosage 64 g.a.i./ha,58%
same,"desiccation and defoliation effect, 16 DAT",dosage 64 g.a.i./ha,70%

# From patent US20140135221A1, “Desiccant and Defoliant Composition for Crops” (NIHON NOHYAKU CO., LTD, priority 2011, published 2014)
